“Also recorded” adds a separate entry of the source. Read-outs that look alike come from different tables or passages of the source.
Tests used:
[1] = test system: salivary gland inositol phosphate signaling pathway; experiment: In vivo tissue inositol phosphate signaling pathway activation, salivary gland; design: species or system rat; details: for block of increase in salivary gland inositol phosphate caused by 82: 1 mg/kg of 82; for inhibition of salivary gland inositol phosphate response to MCD-386: 50 mg/kg MCD-386, antagonist 0.3 mg/kg
Experimental: (§1) Experimental compounds or drug substances were administered using standard techniques to Long Evans Hooded rats weighing 225 to 350 grams, and which had been pretreated with a subcutaneous injection of lithium chloride at a suitable dose between 3 and 10 mmoles per kg. At suitable times the animals were briefly anesthetized using 5% isoflurane and euthanized by decapitation. The brains and submaxillary salivary glands were rapidly dissected out, and the hippocampuses were dissected from the brains. The dissected tissues were homogenized in a suitable volume of ice-cold phosphate-buffered saline containing 10 mM lithium chloride, pH7.4, using a tissue homogenizer, and used immediately or frozen in aliquots at −80degC. for future use. The concentration of inositol-1-phosphate was determined in the homogenates using the IPOne TR-FRET assay (CisBio cat no 621PAPEB), following the manufacturer's instruction

[2] = test system: hippocampal inositol phosphate signaling pathway; experiment: In vivo tissue inositol phosphate signaling pathway activation, hippocampus; design: species or system rat; details: 1 mg/kg of 82; antagonist 0.03 mg/kg
Experimental: as §1

anesthetized rats = experiment: Salivation on iontophoretic transdermal delivery of agonist and antagonist from one patch; type: in vivo, rat; details: patch with 1 mg of 82 plus 0.01mg antagonist
Experimental: Experimental compounds and drug substances were delivered transdermally in rats using iontophoresis as follows. The fur was shaved from the backs of Long Evans Hooded rats weighing 225 to 325 grams, using electric clippers. Experimental compounds and drug substances were formulated at suitable concentrations an aqueous mixture of the following composition:
The polyvinyl alcohol/water was heated to 95 degC. until it became clear, then the other constituents were added and mixed well. The mixture was introduced into suitable molds containing a disc-shaped cavity 2.2 cm diameter and 2.2 mm deep. Molds may be fabricated using two glass sheets separated by a silicone rubber sheet with suitable sized cavities and filling ports cut-outs. The molds were subject to 3 freeze-thaw cycles at −80degC. and 20degC. until a firm cryogel was obtained. The gels were separated from the molds and trimmed into a circular shape. The gel was placed in a silicone rubber casing with one face in contact with a circular silver foil anodic electrode (22 mm dia/250 microns thick), and the assembly was placed on the shaved skin of the rat such that the other face was in contact with the skin on one side of the back of the rat. The rubber casing formed a seal over and around the gel/electrode assembly. […] This was placed on the other side of the shaved back of the rat, the edges of the gel discs being about 20 mm apart at their nearest point. A DC voltage was applied across the two patches from a constant-current DC power supply and the voltage adjusted to obtain the desired current, such that the skin of the animal completed the electrical circuit.
The devices were placed on shaved backs of anesthetized rats and salivation was measured.
The animals were placed slightly head-down on an inclined, heated ramp. Rectal temperature was monitored using a thermocouple and the temperature of the heating pad was adjusted manually to maintain normal body temperature. Saliva was collected from the mouth by absorption onto pre-weighed slips of filter paper. The filter paper was changed periodically and the amount of saliva was measured by weighing the filter paper slips

human FMO1 Supersomes = target: T1, human FMO1 Supersomes (Homo sapiens, UniProt Q01740); experiment: Metabolism by flavin monoxygenase 1 (FMO1) Supersomes; type: in vitro ADME
T1 construct: purchased BD Biosciences 456241
T1 sequence (Q01740 1-532): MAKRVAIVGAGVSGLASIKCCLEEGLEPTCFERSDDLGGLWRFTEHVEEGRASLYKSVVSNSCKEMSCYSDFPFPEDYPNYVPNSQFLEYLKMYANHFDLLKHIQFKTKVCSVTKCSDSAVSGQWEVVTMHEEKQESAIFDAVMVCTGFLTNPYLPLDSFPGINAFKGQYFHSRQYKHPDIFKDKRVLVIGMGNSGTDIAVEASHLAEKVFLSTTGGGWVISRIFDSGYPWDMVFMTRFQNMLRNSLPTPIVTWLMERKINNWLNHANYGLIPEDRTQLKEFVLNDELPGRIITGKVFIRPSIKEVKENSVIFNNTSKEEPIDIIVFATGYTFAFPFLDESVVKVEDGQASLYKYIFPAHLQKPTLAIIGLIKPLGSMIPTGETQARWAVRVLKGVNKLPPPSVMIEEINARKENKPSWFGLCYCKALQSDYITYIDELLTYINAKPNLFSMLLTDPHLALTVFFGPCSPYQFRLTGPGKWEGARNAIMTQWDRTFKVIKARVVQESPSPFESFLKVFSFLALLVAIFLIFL
Experimental: […] Aliquots were removed every 10 minutes, and 1% formic acid was added to halt the reaction. Samples were centrifuged, filtered through 0.2 micron spinfilter and the amount of each compound in the supernatants was quantitated using LC/MS/MS.

[3] = target: T2, human muscarinic M3 receptors (Homo sapiens, UniProt P20309); experiment: Inositol phosphate production in huM3/A9L cells (IPOne TR-FRET); type: cell-based; details: for huM3/A9L Smax: percentage of maximal stimulation by carbachol; for huM3/A9L ED50 relative to CCh: potency relative to carbachol
T2 construct: expressed in transfected cells; host or cells: A9L cells (gift from Professor W Messer)
Experimental: (§2) Muscarinic M1 and M3 agonist activity was evaluated by measuring the stimulation of inositol phosphate (IP) production in the presence of lithium chloride from A9L cells transfected with expression plasmids containing human muscarinic M1 and M3 receptors, respectively. The cell lines were a gift from Professor W Messer, and the methods were as described in Tejada F R et al. J. Med. Chem. 2006; 49: 7518-31 except that the assay was scaled down to run in 384 well plates, and IP was measured in the cell lysates using the non-isotopic IPOne TR-FRET assay (CIS-BIO, Inc).
(§3) Cells were grown to 90% confluence in 384 well hi-base plates (Greiner Bio-One), compounds were added at suitable concentrations in growth medium containing 10 mM LiCL, buffered with an extra 10 mM HEPES (pH7.4), and incubated for 60 minutes at 37° C. Cells were lysed and assayed for IP following the manufacturer's instructions.
(§4) The value for a full agonist is 100%, while partial agonists give values below 100%.

[4] = target: T3, human muscarinic M1 receptors (Homo sapiens, UniProt P11229); experiment: Inositol phosphate production in huM1/A9L cells (IPOne TR-FRET); type: cell-based; details: for huM1/A9L Smax: percentage of maximal stimulation by carbachol; for huM1/A9L ED50 relative to CCh: potency relative to carbachol
T3 construct: expressed in transfected cells; host or cells: A9L cells (gift from Professor W Messer)
T3 sequence (P11229 1-460): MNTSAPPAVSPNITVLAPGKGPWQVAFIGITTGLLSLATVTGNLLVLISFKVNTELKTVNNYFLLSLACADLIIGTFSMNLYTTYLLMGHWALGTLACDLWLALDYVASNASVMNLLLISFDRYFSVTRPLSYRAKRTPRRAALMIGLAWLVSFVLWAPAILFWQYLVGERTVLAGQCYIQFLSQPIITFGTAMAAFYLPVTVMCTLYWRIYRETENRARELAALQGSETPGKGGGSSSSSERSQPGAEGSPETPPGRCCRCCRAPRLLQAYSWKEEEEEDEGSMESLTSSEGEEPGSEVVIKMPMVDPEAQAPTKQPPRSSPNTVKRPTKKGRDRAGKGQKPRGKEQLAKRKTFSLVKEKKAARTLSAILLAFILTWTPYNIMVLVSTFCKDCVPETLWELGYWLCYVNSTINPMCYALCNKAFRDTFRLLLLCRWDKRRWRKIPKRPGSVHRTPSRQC
Experimental: as §2, §3, §4

[5] = test system: pooled male Sprague-Dawley rat liver microsomes; experiment: Metabolism by rat liver microsomes; type: in vitro ADME; details: 6 hours incubation
Experimental: (§5) Compounds were incubated with pooled male Sprague-Dawley rat liver microsomes (BD Biosciences, #452501) and an NADP-regenerating system in a phosphate buffer (pH 7.4) for a total of 6 hours. Aliquots were removed every 2 hours, and 1% formic acid was added to halt the reaction. Samples were centrifuged, filtered through 0.2 micron spinfilter and the amount of each compound in the supernatants was quantitated using LC/MS/MS.

[6] = test system: apomorphine induced climbing; experiment: Apomorphine induced climbing model of psychosis; type: in vivo, CD-I mice; details: mice, sc
Experimental: As described in Costall et. al. European Journal of Pharmacology 1978, 50, 39. individual CD-I mice, 1-2 months old, were placed in a cylindrical wire mesh cage (13.2 cm high×13.2 cm diameter) constructed of steel wire 1 mm thick spaced at 1.2 cm^2. Cylinders were placed in a standard OptiMICE mouse cage (29×32×9×29 cm wide and 14 cm high) with adequate wood chip bedding provided. Observations of climbing (defined as 3 or more paws off the ground) were carried out every 5 minutes at a duration of 1 minute for 30 minutes. Animals were injected subcutaneously under isoflurane anesthesia with test compounds, reference compounds, which included clozapine, haloperidol, olanzapine and xanomeline, or PBS as a control. This was followed 5 minutes later by 2 mg/kg apomorphine hydrochloride. All drugs were dissolved in PBS or a mixture of (by volume) 96% PBS and 4% hydroxypropyl-beta-cyclodextrin, and dosed at a rate of 5 ml per kilogram of body weight. Following injections, animals were replaced in the mesh cages and observed for climbing (defined as 3 or more paws off the ground) every 5 minutes for a duration of 1 minute for 60 minutes after dosing.

[7] = test system: pooled male human liver microsomes; experiment: Metabolism by human liver microsomes; type: in vitro ADME; details: 6 hours incubation
Experimental: as §5, with “human” for “Sprague-Dawley rat”, “#452172)” for “#452501)”

[8] = antagonist 0.1 mg/kg (oxybutinin or darifenacin)

T2 sequence (P20309 whole entry): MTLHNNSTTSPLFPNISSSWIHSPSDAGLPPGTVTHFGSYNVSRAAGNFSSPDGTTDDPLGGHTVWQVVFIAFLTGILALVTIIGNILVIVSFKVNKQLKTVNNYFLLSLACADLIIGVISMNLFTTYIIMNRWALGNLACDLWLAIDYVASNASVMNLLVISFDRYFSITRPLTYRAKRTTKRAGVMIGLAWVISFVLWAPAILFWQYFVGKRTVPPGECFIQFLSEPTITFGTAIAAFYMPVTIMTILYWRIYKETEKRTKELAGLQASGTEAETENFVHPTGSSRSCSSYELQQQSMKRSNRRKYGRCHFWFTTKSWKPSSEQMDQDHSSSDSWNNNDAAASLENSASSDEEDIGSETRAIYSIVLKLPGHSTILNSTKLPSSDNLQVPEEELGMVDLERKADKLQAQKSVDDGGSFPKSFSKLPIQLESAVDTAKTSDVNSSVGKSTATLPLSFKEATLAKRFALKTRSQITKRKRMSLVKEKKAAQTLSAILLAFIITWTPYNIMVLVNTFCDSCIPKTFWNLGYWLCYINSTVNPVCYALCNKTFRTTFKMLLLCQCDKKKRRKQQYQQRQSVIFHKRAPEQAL

## C[N+]1(C)CCC(OC(=O)C(O)(c2ccccc2)C2CCCC2)C1 (stereo not shown) [glycopyrrolate]
[1]; antagonist 0.03 mg/kg
  block of increase in salivary gland inositol phosphate caused by 82: can block
[1]
  inhibition of salivary gland inositol phosphate response to MCD-386: virtually completed inhibited
[2]
  block of increase in hippocampal inositol phosphate caused by 82: without blocking the increase in hippocampal inositol phosphate
Anesthetized rats
  reduction of salivation caused by transdermal iontophoretic delivery of 82: greatly reduced

## Clc1cccc(Cl)c1N=C1NCCN1 [Clonidine, reference compound]
other
  PAMPA (? × 106): 7.95 ? × 106

## CC(C)[N+](C)(CCOC(=O)C1c2ccccc2Oc2ccccc21)C(C)C [propantheline]
[1]; antagonist 0.03 mg/kg
  block of increase in salivary gland inositol phosphate caused by 82: can block
[1]
  inhibition of salivary gland inositol phosphate response to MCD-386: virtually completed inhibited
[2]
  block of increase in hippocampal inositol phosphate caused by 82: without blocking the increase in hippocampal inositol phosphate
Anesthetized rats
  reduction of salivation caused by transdermal iontophoretic delivery of 82: greatly reduced

## CCN(CC)CC#CCOC(=O)C(O)(c1ccccc1)C1CCCCC1 (stereo not shown) [oxybutinin]
[1]; [8]
  block of increase in salivary gland inositol phosphate caused by 82: less effective
[1]
  inhibition of salivary gland inositol phosphate response to MCD-386: less effective
Anesthetized rats
  reduction of salivation caused by transdermal iontophoretic delivery of 82: reduced salivation, but were less effective

## NC(=O)C(c1ccccc1)(c1ccccc1)[C@@H]1CCN(CCc2ccc3c(c2)CCO3)C1 [darifenacin]
[1]; [8]
  block of increase in salivary gland inositol phosphate caused by 82: less effective
[1]
  inhibition of salivary gland inositol phosphate response to MCD-386: less effective
Anesthetized rats
  reduction of salivation caused by transdermal iontophoretic delivery of 82: reduced salivation, but were less effective

## Cc1noc(C2CN3CCC2CC3)n1 (stereo not shown) [Compound 127, 3-methyl-5-(quinuclidin-3-yl)-1,2,4-oxadiazole, reference compound]
Human FMO1 Supersomes
  extent of metabolism in FMO Supersomes: almost completely metabolized
[3]
  huM3/A9L Smax: 50-100%
  huM3/A9L ED50 relative to CCh: ++ (potency >10x CCh)
[4]
  selectivity between M1 and M3 receptors: essentially non-selective
  huM1/A9L Smax: 50-100%
  huM1/A9L ED50 relative to CCh: ++ (potency >10x CCh)
PAMPA test
  PAMPA (? × 106): 3.02 ? × 106
  rate of crossing the lipid layer in the PAMPA test: significantly better

## [2H]C([2H])([2H])c1noc(C2CCCNC2)n1 (stereo not shown) [Compound 88, 3-D3-Methyl-5-(piperidin-3-yl)-1,2,4-oxadiazole]
Human FMO1 Supersomes
  extent of metabolism in FMO Supersomes: less than half metabolized
[5]
  extent of metabolism in rat liver microsomes: far more stable than compounds 126 and 127
[6]
  activity in the apomorphine induced climbing model: potent and effective
[7]
  extent of metabolism in human liver microsomes: metabolized significantly less in human liver microsomes than in rat liver microsomes
[3]
  huM3/A9L Smax: 60%
  huM3/A9L ED50 relative to CCh: +/− (potency 0.5-2x CCh)
[4]
  huM1/A9L Smax: 116%
  huM1/A9L ED50 relative to CCh: + (potency 2-10x CCh)

## Cc1noc(C2=CCCN(C)C2)n1 [Compound 126, 3-methyl-5-(1-methyl-1,2,5,6-tetrahydropyridin-3-yl)-1,2,4-oxadiazole, reference compound]
Human FMO1 Supersomes
  extent of metabolism in FMO Supersomes: almost completely metabolized; also recorded: nearly completely metabolized
[5]
  extent of metabolism in rat liver microsomes: nearly completely metabolized
[7]
  extent of metabolism in human liver microsomes: nearly completely metabolized
[3]
  huM3/A9L ED50 relative to CCh: + (potency 2-10x CCh)
[4]
  potency and efficacy at M1 muscarinic receptors: reasonable potency and efficacy
  selectivity between M1 and M3 receptors: some selectivity for M1 versus M3 receptors
  huM1/A9L ED50 relative to CCh: + (potency 2-10x CCh)
PAMPA test
  PAMPA (? × 106): 12.75 ? × 106
  rate of crossing the lipid layer in the PAMPA test: slightly better
